In assay [1] the target is T1, αMI-domain of integrin Mac-1 (αMβ2, CD11b/CD18) (Homo sapiens, UniProt P11215).
T1 construct: gene ITGAM; αMI-domain, human WT
Put plainly: SPR (Biacore […], CM5 chip, steady-state affinity); supported by inhibition of GPIbα binding to αMI-domain (IC50 […]). A general note: In SPR one partner is held on a chip, and binding of the other changes the refractive index at the surface.

Assay [2] deals with T2, αMI-domain double mutant of integrin Mac-1 (αMβ2, CD11b/CD18) (Homo sapiens, UniProt P11215, R232A/T229A).
T2 construct: gene ITGAM; αMI-domain, human mutant
T2 sequence (P11215 150-328 T229A/R232A limits assumed): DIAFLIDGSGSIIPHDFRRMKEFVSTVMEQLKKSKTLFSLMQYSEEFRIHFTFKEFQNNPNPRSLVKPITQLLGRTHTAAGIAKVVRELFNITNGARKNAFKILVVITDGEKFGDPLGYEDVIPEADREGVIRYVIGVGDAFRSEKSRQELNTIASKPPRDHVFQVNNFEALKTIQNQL
Put plainly: SPR (Biacore […], ~[…] RU, steady-state affinity); low-level binding, no consistent interaction at ~[…] RU.

T1 sequence (P11215 150-328 limits assumed): as the sequence (P11215 150-328 T229A/R232A limits assumed) above, with A80T, A83R counted along it

Turning to `N[C@H]1C(O)O[C@H](CO)[C@@H](O)[C@@H]1O` (some centres unmarked) [glucosamine], the Kd in assay [1] is about 100 µM; in assay [2] it was about 244 µM.

One may read the Kd as the constant that tells how readily two partners part at equilibrium. The low end stands for a tighter complex, the high end for a looser complex.

These data come from article PMC5477519, “Leukocyte integrin Mac-1 regulates thrombosis via interaction with platelet GPIbα” (Nature Communications, 2017).
